The values below come from patent US12673041B2, “4-aminobut-2-enamide derivatives and salt thereof” (TAIHO PHARMACEUTICAL CO., LTD., priority 2019, dated 2026).

For test [1], the target named is Gppcp-bound recombinant K-Ras4B G12C mutant protein (amino acids 1-169, C51S/C80L/C118S) (Homo sapiens, UniProt P01116, C118S/C51S/C80L/G12C). Put plainly: KRASG12C binding assay (LC-MS compound binding rate). The note with it: test compound final concentration 0.5 μM, 25° C., 1 hour. The method in brief:
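Gppcp-bound K-Ras4B G12C (aa 1-169, C51S/C80L/C118S) at 50 nM in 1×TBS, 0.1 mM TCEP, 0.25 mM MgCl2, 50 μM Gppcp was incubated 1 hour at 25° C with compound at 0.5 μM final. Intact-protein LC-MS gave binding rate as single-adduct signal over total KRAS signal, graded A (≥80%) to E (<20%).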

The test system of a further test is MIA PaCa-2 cells. As to the kind of experiment: Growth inhibition activity on KRAS-G12C mutant cell line (MIA PaCa-2). It counts as cell-based. The note with it: Homo sapiens, 72 h; MIA PaCa-2, 3-day culture, CellTiter-Glo 3D. In a few lines: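 KRAS-G12C human pancreatic MIA PaCa-2 cells in RPMI1640 + 10% FBS, seeded in U-bottom plates and grown 1 day, then exposed to compound (0.2% DMSO final) for 3 days at 37 °C, 5% CO2. Viability by CellTiter-Glo 3D luminescence; IC50 from inhibition relative to untreated wells.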

Regarding `C=CC(=O)N1CCN(c2ncnc3c(F)c(-c4c(O)cccc4F)c(Cl)cc23)CC1` [ARS-1620, reference compound], in test [1], the binding rate entry is on record as “E (a binding rate of less than 20% is rated “E”)”.
Regarding `CCc1nc2cc(-c3cccc(NC(=O)c4ccc(NC(=O)/C=C/CN[C@H]5CC[C@H](OC)CC5)c(C#N)c4)c3)c(C(F)(F)F)cc2n1C` [Example 1, 3-cyano-N-(3-(2-ethyl-1-methyl-6-(trifluoromethyl)-1H-benzo[d]imidazol-5-yl)phenyl)-4-((E)-4-(((1r, 4r)-4-methoxycyclohexyl)amino)but-2-enamido)benzamide], the binding rate entry in test [1] was “A (A binding rate of 80% or more is rated “A”)”.
For orientation: IC50 means the point on the concentration scale where inhibition reaches its midpoint. High values mean lower potency, low ones higher potency. Consider `CO[C@H]1CC[C@H](NC/C=C/C(=O)Nc2ccc(C(=O)c3ccc4c(-c5cc6ncn(C)c6cc5C)cccn34)cc2C#N)CC1` [Example 4, (E)-N-(2-cyano-4-(8-(1,6-dimethyl-1H-benzo[d]imidazol-5-yl)indolizine-3-carbonyl)phenyl)-4-(((1r,4r)-4-methoxycyclohexyl)amino)but-2-enamide], for which the binding rate entry in test [1] is on record as “A (A binding rate of 80% or more is rated “A”)”. In the test on MIA PaCa-2 cells, this compound returned an IC50 of 140 nM.
